According to BigSolDB 2.1:

OC[C@H]1O[C@@H](Oc2ccc(O)cc2)[C@H](O)[C@@H](O)[C@@H]1O
solubility (mole fraction)
Conditions	283.15 K	288.15 K	293.15 K	298.15 K	303.15 K	308.15 K	313.15 K	318.15 K	323.15 K
in 2-butanone	0.000188	0.000212	0.000243	0.00026	0.000297	0.000346	0.000418	0.00045	0.000524
in acetone	0.000686	0.00071	0.000773	0.000799	0.000867	0.00101	0.00118	0.00127	0.00143
in acetonitrile	8.17e-05	9.3e-05	0.000124	0.000149	0.000163	0.000211	0.000236	0.000318	0.000362
in ethanol	0.00263	0.00268	0.0029	0.00309	0.00353	0.00419	0.00477	0.00551	0.0059
in ethyl acetate	8.03e-05	8.14e-05	8.6e-05	9.09e-05	9.62e-05	0.000104	0.000112	0.000124	0.000156
in ethylene glycol	0.0471	0.0486	0.0507	0.0527	0.0549	0.0572	0.0601	0.0631	0.0666
in isobutanol	0.000225	0.000279	0.000303	0.000394	0.000454	0.000572	0.000668	0.000911	0.00104
in isopropanol	0.000727	0.000858	0.0009	0.00108	0.00125	0.0016	0.00191	0.00216	0.00261
in methanol	0.0113	0.0117	0.0123	0.0132	0.0143	0.016	0.0176	0.0191	0.0221
in methyl acetate	0.000112	0.000129	0.00014	0.000154	0.000185	0.000239	0.000277	0.000353	0.00041
in n-butanol	0.000376	0.000499	0.000566	0.000699	0.00075	0.001	0.00115	0.00131	0.00144
in n-propanol	0.000764	0.000889	0.00103	0.00115	0.00128	0.00155	0.00181	0.00207	0.0023
